In ChEMBL document CHEMBL5055686, “Discovery of AL-GDa62 as a Potential Synthetic Lethal Lead for the Treatment of Gastric Cancer” (J Med Chem, 2021):

Key:
MCF-10A [1] = assay: Antitumor activity against human spontaneously immortalized wild type MCF-10A cells assessed as cell numbers measured after 48 hrs; assay type: functional, cell-based
[2] = Ratio of EC50 for antitumor activity against human spontaneously immortalized wild type MCF10A cells assessed as cell numbers measured after 48 hrs to antitumor activity against human spontaneously immortalized CDH-/- MCF10A cells assessed as cell numbers measured after 48 hrs; assay type: functional, MCF-10A
MCF-10A [3] = assay: Antitumor activity against human spontaneously immortalized CDH-/- MCF10A cells assessed as cell numbers measured after 48 hrs; assay type: functional, cell-based
MCF-10A [4] = assay: Antitumor activity against human spontaneously immortalized CDH-/- MCF10A cells assessed as cell numbers at 3.13 uM measured after 48 hrs; assay type: functional
[5] = Homo sapiens, MCF-10A, 48 h, read-out: EC50

Row | Compound | EC50 (MCF-10A [1]; [5]) [µM] | Ratio EC50 [2] | EC50 (MCF-10A [3]; [5]) [µM] | EC50 (MCF-10A [1]; mcf-10a) | EC50 (MCF-10A [3]; mcf-10a) | inhibition at 3.13 µM (MCF-10A [4]) [%]
1 | COc1ccc2nc(C)cc(NCc3cccc(C#N)c3)c2c1 | 17.4 | 1.3 | 13.4 |  |  | 
2 | COc1ccc2nc(C)cc(NCc3ccccc3CO)c2c1 | 25.9 | 1.1 | 22.9 |  |  | 
3 | CCCCCCCCOc1ccc2nc(C)cc(NCc3ccc(F)cc3)c2c1 | 2.2 | 1.1 | 1.8 |  |  | 
4 | COc1ccc2nc(C)cc(NCc3ccc(C(C)(C)C)cc3)c2c1 | 7 | 1 | 6.9 |  |  | 
5 | COc1ccc2nc(C)cc(NCc3ccc(F)c(C(F)(F)F)c3)c2c1 | 14.3 | 1 | 11.3 |  |  | 
6 | COc1ccc2nc(-c3ccc(C)o3)cc(NC3CCN(C)CC3)c2c1 | 0.8 | 0.8 | 1.1 |  |  | 
7 | COc1ccc2nc(C)cc(NCc3cccc(CO)c3)c2c1 | 24.7 | 1.4 | 17.1 |  |  | 
8 | COc1cc2c(NC3CCN(C)CC3)cc(C)nc2cc1OCCCN1CCCC1 | 39.2 | 1 | 41.1 |  |  | 
9 | COc1ccc(CNc2cc(C)nc3ccc(OC)cc23)cc1 | 9.7 | 1.4 | 7 |  |  | 
10 | Cc1cc(NCc2cccc(C#N)c2)c2cc(OCCCN3CCCC3)ccc2n1 | 10.3 | 1.2 | 8.5 |  |  | 
11 | Cc1cc(NCc2ccc(F)cc2)c2cc(OCCCCCCN=[N+]=[N-])ccc2n1 | 4 | 1 | 4.1 |  |  | 
12 | COc1ccc2nc(C)cc(NCc3ccc(N(C)C)cc3)c2c1 | 20 | 1.3 | 15.1 |  |  | 
13 | COc1ccc2nc(CO)cc(NC3CCN(C)CC3)c2c1 | 30.1 | 0.9 | 32.3 |  |  | 
14 | COc1ccc2nc(C)cc(NCc3cc(F)cc(F)c3)c2c1 | 18.1 | 1.1 | 13.3 |  |  | 
15 | COc1ccc2nc(C)cc(NCC[C@@H]3CNC[C@H]3O)c2c1.O=C(O)C(F)(F)F |  |  |  | Nd(Toxic) | Nd(Toxic) | 
16 | Cc1cc(NCc2ccc(F)cc2)c2cc(OCCCCCCO)ccc2n1 | 11.3 | 1.4 | 8.1 |  |  | 

Row | Compound | EC50 (MCF-10A [1]; [5]) [µM] | Ratio EC50 [2] | EC50 (MCF-10A [3]; [5]) [µM] | EC50 (MCF-10A [1]; mcf-10a) | EC50 (MCF-10A [3]; mcf-10a) | inhibition at 3.13 µM (MCF-10A [4]) [%]
17 | CCCCCCCCCCOc1ccc2nc(C)cc(NCc3ccc(F)cc3)c2c1 | 2 | 1 | 1.9 |  |  | 
18 | COc1ccc2nc(C)cc(NCC3CCCN(C)C3)c2c1 (stereo not drawn) | 5.8 |  | 6.4 |  |  | 
19 | COc1ccc2nc(C)cc(NC3CCN(C)CC3)c2c1 | 7.1 | 0.9 | 7.8 |  |  | 
20 | COc1ccc2c(NCc3ccc(F)cc3)cc(C)nc2c1 | 15.9 | 1.6 | 10.2 |  |  | 10
21 | CCCCCCCOc1cc(OC)cc2c(NCc3ccc(F)cc3)cc(C)nc12 | 3.3 | 1.2 | 2.7 |  |  | 
22 | COc1cccc(CNc2cc(C)nc3ccc(OC)cc23)c1 | 12.5 | 1.3 | 9.7 |  |  | 
23 | COc1ccc2nc(C)cc(NCc3cccc(C(F)(F)F)c3)c2c1 | 8 | 1 | 7.2 |  |  | 
24 | Cc1cc(NC2CCN(C)CC2)c2cc(OCCCN3CCCC3)ccc2n1 | 11.4 | 0.9 | 13.2 |  |  | 
25 | COc1ccc2nc(C)cc(NC[C@H]3NC[C@H](O)[C@@H]3O)c2c1.O=C(O)C(F)(F)F |  |  |  | Nd(Toxic) | Nd(Toxic) | 
26 | COc1ccc2nc(C)cc(NCc3ccc(-c4ccccc4)cc3)c2c1 | 2.7 | 1 | 2.8 |  |  | 
27 | COc1ccc2nc(C)cc(NCc3ccccc3OC)c2c1 | 29.5 | 1.2 | 25.2 |  |  | 
28 | COc1ccc2nc(C)cc(NCc3c(F)cccc3C(F)(F)F)c2c1 | 14 | 1 | 14.2 |  |  | 
29 | COc1ccc2nc(C)cc(NCc3ccc(F)cc3C(F)(F)F)c2c1 | 4.2 | 0.8 | 5.2 |  |  | 
30 | COc1ccc2nc(C)cc(NCc3c(F)cccc3F)c2c1 | 13.6 | 1.3 | 13.6 |  |  | 
31 | COc1cc2c(NC3CCN(C)CC3)cc(-c3ccc(C)o3)nc2cc1OCCCN1CCCC1 | 0.5 |  | 0.2 |  |  | 
32 | COc1ccc2nc(C)cc(NCc3cccc(-c4ccccc4)c3)c2c1 | 3.1 | 1.1 | 2.8 |  |  | 
